{"source": "patent US20260335306A1", "about": "“DOSAGE REGIMENS OF ESTROGEN RECEPTOR DEGRADERS” (priority 2022, published 2026)", "key": {"[1]": {"test": "Interconversion of Compound A to Compound B", "assay_type": "physicochemical"}, "[2]": {"test": "Clinical Pharmacology Study: safety in healthy volunteers", "conditions": "200 mg, 47 healthy participants"}, "[3]": {"test": "Biopharmaceutics Classification System classification", "assay_type": "physicochemical"}, "[4]": {"conditions": "human, in vivo"}, "[5]": {"tested_on": "T47D cells", "test": "Live-cell imaging proliferation assay (Incucyte), T47D", "assay_type": "cell-based", "conditions": "Homo sapiens, 120 h; for GI50: read-out: approximate GI50", "source_text": "(§1) FIGS. 1A-1H are graphs showing quantification of the MCF7 and T47D live-cell imaging proliferation assays. […] Each plot is representative of three independent experiments. […] Each plot is representative of three independent experiments, except for the T47D fulvestrant arms in FIGS. 1A and 1C, which are the result of 2 independent experiments). FIGS. 1B, 1D, 1F and 1H show differences in relative MCF7 and T47D cell growth compared to vehicle control at 120-hours of treatment. Graphs show the mean of three independent experiments, except for the T47D fulvestrant arms in FIGS. 1B and 1D, which are the result of 2 independent experiments). Error bars=standard error of the mean (SEM). *p<0.025, **p≤0.008, ***p≤0.0006, ****p<0.0001, ns=not significant (one-way ANOVA test).\n(§2) MCF7 or T47D cells were seeded in 6 well plates and treated with the indicated concentrations of compounds. The plate was then placed in the Incucyte® S3 Live-Cell Analysis System and images were acquired every 4 hours for a total of 5 days. Data were analyzed using the Incucyte® Software v2020C which quantified cell surface area coverage as confluence values. Relative growth was calculated for all timepoints for all growth conditions relative to the confluence value observed for the control at 120 hours (FIGS. 1A and 1C). Graphing and statistical analyses were performed using Graphpad Prism (GraphPad Software).\n(§3) For fulvestrant and fulvestrant plus abemaciclib, mean decreases in MCF7 cell growth were 48% and 68%, respectively."}, "[6]": {"tested_on": "MCF7 cells", "test": "Live-cell imaging proliferation assay (Incucyte), MCF7", "assay_type": "cell-based", "conditions": "for GI50: Homo sapiens, MCF7, 120 h, read-out: approximate GI50; for mean decrease in MCF7 cell growth relative to control: 5 days, Compound A 10 nM", "source_text": "as §1, §2, §3"}, "[7]": {"tested_on": "MCF7 xenograft", "test": "MCF7 xenograft model, palbociclib study", "assay_type": "in vivo, NOD/SCID mice", "conditions": "28 days; Compound A 30 mg/kg PO QD, fulvestrant 200 mg/kg SC, palbociclib 60 mg/kg PO QD; FIG. 5", "experimental": "Female severe combined immunodeficient mouse in non-obese background (NOD/scid) mice were implanted with MCF7 cells and compound administration was initiated once the tumors reached 200 mm^3. Tumor volumes were evaluated twice per week for 28 days. […] Data are presented as mean±standard error of the mean (SEM)\n(§4) Briefly, MCF7 cells were orthotopically implanted into the mammary fat pads of NOD/SCID female mice. 17β-estradiol 0.72 mg 90-day pellet (Innovative Research of America) were implanted 2-3 days prior to MCF7 cell implant. […] Compound A- and/or combination partner-treated mice were dosed orally once daily. Fulvestrant-treated mice were dosed subcutaneously twice per week for 2 weeks followed by once weekly for 2 weeks.\nVehicle for abemaciclib was 1% […] (HEC) in 20 mM HCl pH2. Vehicle for ribociclib was 0.5% methylcellulose. Vehicle for fulvestrant was 10% w/v ethanol, 10% w/v benzyl alcohol, 15% w/v benzyl benzoate, made up to 100% w/v with castor oil. […] Tumor volumes were measured twice per week in efficacy studies and calculated using (width^2×length)/2, where all measurements are in millimeters (mm) and the tumor volume is in mm^3. Body weights were recorded twice per week. […] Tumor growth inhibition (TGI) was calculated as follows, where tumor volume is in mm^3: […]"}, "[8]": {"test": "Exposure of Compound B relative to Compound A (preclinical data)"}, "[9]": {"target": "T1, ER (Homo sapiens, UniProt P03372)", "T1 construct": "degradation by PROTAC", "T1 sequence (P03372 1-595)": "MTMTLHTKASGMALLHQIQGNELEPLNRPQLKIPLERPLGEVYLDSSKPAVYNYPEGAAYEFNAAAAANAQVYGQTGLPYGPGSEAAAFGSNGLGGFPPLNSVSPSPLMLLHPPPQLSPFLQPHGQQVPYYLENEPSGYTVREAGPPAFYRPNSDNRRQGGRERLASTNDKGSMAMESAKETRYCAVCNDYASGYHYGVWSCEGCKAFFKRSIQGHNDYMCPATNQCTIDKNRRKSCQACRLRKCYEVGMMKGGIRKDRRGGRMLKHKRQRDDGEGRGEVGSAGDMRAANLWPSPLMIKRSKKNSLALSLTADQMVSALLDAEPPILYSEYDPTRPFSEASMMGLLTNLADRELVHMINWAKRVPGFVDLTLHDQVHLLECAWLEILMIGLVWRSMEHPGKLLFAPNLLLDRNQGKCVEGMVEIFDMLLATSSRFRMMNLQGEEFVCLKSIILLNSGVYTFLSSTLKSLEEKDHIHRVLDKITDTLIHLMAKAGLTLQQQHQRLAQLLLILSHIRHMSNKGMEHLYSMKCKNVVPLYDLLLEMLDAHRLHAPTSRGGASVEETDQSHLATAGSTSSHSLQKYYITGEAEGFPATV", "test": "ER degradation"}, "[10]": {"test": "FIH Study Part C: pharmacokinetics in patients with breast cancer", "assay_type": "in vivo, human", "conditions": "preliminary", "experimental": "Additional evaluation will include single- and multiple-dose pharmacokinetics and biochemical activity.\nPalbociclib was administered orally once a day at 125 mg/day for 21 days followed by 7 days off treatment for each 28-day cycle according to product labeling and in compliance with its local prescribing information.\nAnticancer Drugs. 2018 March; 29 (3): 271280)."}, "[11]": {"tested_on": "MCF7 orthotopic xenograft", "test": "MCF7 orthotopic xenograft model, abemaciclib study", "assay_type": "in vivo, NOD/SCID mice", "conditions": "28 days; Compound A 30 mg/kg, abemaciclib 30 mg/kg orally QD, fulvestrant 200 mg/kg SC; FIG. 3A", "quoted_text": "Briefly, MCF7 cells were orthotopically implanted into the mammary fat pads of NOD/SCID female mice. 17β-estradiol 0.72 mg 90-day pellet (Innovative Research of America) were implanted 2-3 days prior to MCF7 cell implant. […] Fulvestrant-treated mice were dosed subcutaneously twice per week for 2 weeks followed by once weekly for 2 weeks.\nEight- to ten-week-old female NOD/SCID mice were surgically implanted with a 0.36 mg 90-day release 17β-estradiol pellet subcutaneously. One to two days later each mouse was injected with 5×10^6/200 μL MCF7 cells into one mammary fat pad. […] Fulvestrant (200 mg/kg, subcutaneously; twice per week for 2 weeks followed by once-weekly for 2 weeks) was also evaluated as a single agent and in combination with abemaciclib and ribociclib. […]\nVehicle for abemaciclib was 1% hydroxymethyl cellulose (HEC) in 20 mM HCl pH2. […] Tumor volumes were measured twice per week in efficacy studies and calculated using (width^2×length)/2, where all measurements are in millimeters (mm) and the tumor volume is in mm^3. Body weights were recorded twice per week. […] Tumor growth inhibition (TGI) was calculated as follows, where tumor volume is in mm^3:"}, "[12]": {"tested_on": "MCF7 orthotopic xenograft", "test": "MCF7 orthotopic xenograft model, ribociclib study", "assay_type": "in vivo, NOD/SCID mice", "conditions": "28 days; Compound A 30 mg/kg, ribociclib 75 mg/kg orally QD, fulvestrant 200 mg/kg SC; FIG. 3B", "experimental": "Mean tumor volumes are reported ±SEM. Single-day dosing holidays are indicated by small black arrows.\nCompounds dosed as single agents or in combination, 10 mice/arm.\nas §4\nEight- to ten-week-old female NOD/SCID mice were surgically implanted with a 0.36 mg 90-day release 17β-estradiol pellet subcutaneously. […] Fulvestrant (200 mg/kg, subcutaneously; twice per week for 2 weeks followed by once-weekly for 2 weeks) was also evaluated as a single agent and in combination with abemaciclib and ribociclib. […]\nVehicle for abemaciclib was 1% […] (HEC) in 20 mM HCl pH2. […] Tumor volumes were measured twice per week in efficacy studies and calculated using (width^2×length)/2, where all measurements are in millimeters (mm) and the tumor volume is in mm^3. Body weights were recorded twice per week. […] Tumor growth inhibition (TGI) was calculated as follows, where tumor volume is in mm^3: […]"}, "[13]": {"conditions": "read-out: mean change in T47D cell growth relative to control"}, "[14]": {"conditions": "read-out: mean decrease in T47D cell growth relative to control"}, "[15]": {"conditions": "with palbociclib, 180 up to 500 mg QD Compound A, Cycle 1 Day 1 and Day 15"}, "[16]": {"conditions": "abemaciclib experiment, fulvestrant 1 nM, abemaciclib 40 nM (approx. GI50)"}}, "note": "Where two headings read alike, the source gives them in different places."}
{"smiles": "O=C1CC[C@H](N2Cc3cc(N4CCN(CC5CCN(c6ccc([C@@H]7c8ccc(O)cc8CC[C@@H]7c7ccccc7)cc6)CC5)CC4)ccc3C2=O)C(=O)N1", "note": "[Compound A, (S)-3-(5-(4-((1-(4-((1R,2S)-6-hydroxy-2-phenyl-1,2,3,4-tetrahydronaphthalen-1-yl)phenyl)piperidin-4-yl)methyl)piperazin-1-yl)-1-oxoisoindolin-2-yl)piperidine-2,6-dione]", "values": [{"measurement": "interconversion to Compound B", "setting": "[1]", "value": "can interconvert"}, {"measurement": "TRAEs of Grade 2 or higher", "setting": "[2]", "value": "no TRAEs of Grade 2 or higher were reported"}, {"measurement": "tolerability", "setting": "[2]", "value": "well-tolerated"}, {"measurement": "Biopharmaceutics Classification System Class", "setting": "[3]", "value": "Class IV"}, {"measurement": "permeability (BCS)", "setting": "[3]", "value": "low permeability"}, {"measurement": "solubility (BCS)", "setting": "[3]", "value": "low solubility"}, {"measurement": "SAEs, SARs or deaths", "setting": "[4]", "value": "No SAEs, SARs or deaths were reported"}, {"measurement": "GI50", "setting": "[5]", "value": "~10", "unit": "nM"}, {"measurement": "inhibition at 0.01 µM", "setting": "[5]; [13]", "value": 41, "unit": "%"}, {"measurement": "inhibition at 0.01 µM", "setting": "[5]; [14]", "value": 42, "unit": "%"}, {"measurement": "GI50", "setting": "[6]", "value": "~10", "unit": "nM"}, {"measurement": "tumor growth inhibition (TGI)", "setting": "[7]", "value": 105, "unit": "%"}]}
{"smiles": "O=C1CC[C@@H](N2Cc3cc(N4CCN(CC5CCN(c6ccc([C@@H]7c8ccc(O)cc8OC[C@@H]7c7ccccc7)cc6)CC5)CC4)ccc3C2=O)C(=O)N1", "note": "[Compound B]", "values": [{"measurement": "exposure of Compound B compared to Compound A", "setting": "[8]", "value": "< 26", "unit": "%"}, {"measurement": "degradation of the ER", "setting": "[9]", "value": "does not degrade the ER"}, {"measurement": "AUCtau, dose dependence", "setting": "[10]; [15]", "value": "dose-dependent increases"}, {"measurement": "Cmax, dose dependence", "setting": "[10]; [15]", "value": "dose-dependent increases"}]}
{"smiles": "CCN1CCN(Cc2ccc(Nc3ncc(F)c(-c4cc(F)c5nc(C)n(C(C)C)c5c4)n3)nc2)CC1", "note": "[abemaciclib, N-(5-((4-ethylpiperazin-1-yl)methyl)pyridin-2-yl)-5-fluoro-4-(4-fluoro-1-isopropyl-2-methyl-1H-benzo[d]imidazol-6-yl)pyrimidin-2-amine]", "values": [{"measurement": "tumor growth inhibition (TGI)", "setting": "[11]", "value": 50, "unit": "%"}, {"measurement": "GI50", "setting": "[5]", "value": "~40", "unit": "nM"}, {"measurement": "inhibition at 0.04 µM", "setting": "[5]; [14]", "value": 32, "unit": "%"}, {"measurement": "GI50", "setting": "[6]", "value": "~40", "unit": "nM"}, {"measurement": "mean decrease in MCF7 cell growth relative to control", "setting": "[6]; [16]", "value": 49, "unit": "%"}]}
{"smiles": "C[C@]12CC[C@@H]3c4ccc(O)cc4C[C@@H](CCCCCCCCC[S+]([O-])CCCC(F)(F)C(F)(F)F)[C@H]3[C@@H]1CC[C@@H]2O", "note": "(stereo partly shown) [fulvestrant]", "values": [{"measurement": "tumor growth inhibition (TGI)", "setting": "[11]", "value": 42, "unit": "%"}, {"measurement": "tumor growth inhibition (TGI)", "setting": "[12]", "value": 31, "unit": "%"}, {"measurement": "GI50", "setting": "[5]", "value": "~1", "unit": "nM"}, {"measurement": "inhibition at 0.001 µM", "setting": "[5]; [14]", "value": 16, "unit": "%"}, {"measurement": "GI50", "setting": "[6]", "value": "~1", "unit": "nM"}, {"measurement": "mean decrease in MCF7 cell growth relative to control", "setting": "[6]; [16]", "value": 48, "unit": "%"}, {"measurement": "tumor growth inhibition (TGI)", "setting": "[7]", "value": 46, "unit": "%"}]}
{"smiles": "CC(=O)c1c(C)c2cnc(Nc3ccc(N4CCNCC4)cn3)nc2n(C2CCCC2)c1=O", "note": "[palbociclib, 6-acetyl-8-cyclopentyl-5-methyl-2-(5-piperazin-1-yl-pyridin-2-ylamino)-8H-pyrido[2,3-d]pyrimidin-7-one]", "values": [{"measurement": "increase in palbociclib AUCtau vs PALOMA-1 and PALOMA-2", "setting": "[10]; Cycle 1 Day 15, 125 mg QD palbociclib with 500 mg QD Compound A", "value": "~34", "unit": "%"}]}
{"smiles": "CN(C)C(=O)c1cc2cnc(Nc3ccc(N4CCNCC4)cn3)nc2n1C1CCCC1", "note": "[ribociclib, 7-cyclopentyl-N,N-dimethyl-2-[(5-piperazin-1-ylpyridin-2-yl)amino]pyrrolo[2,3-d]pyrimidine-6-carboxamide]", "values": [{"measurement": "tumor growth inhibition (TGI)", "setting": "[12]", "value": 58, "unit": "%"}, {"measurement": "GI50", "setting": "[5]", "value": "~40", "unit": "nM"}, {"measurement": "inhibition at 0.04 µM", "setting": "[5]; [13]", "value": 32, "unit": "%"}, {"measurement": "GI50", "setting": "[6]", "value": "~40", "unit": "nM"}, {"measurement": "mean decrease in MCF7 cell growth relative to control", "setting": "[6]; ribociclib experiment, ribociclib 40 nM (approx. GI50)", "value": 44, "unit": "%"}]}
